What all share (test): growth of human tumour cells (NCI), 48 h
Experiment [1] relates to OVCAR-3.
Experiment [2] deals with HCC 2998.
Experiment [3] deals with BT-549.
In experiment [4] the test system is Malme-3M.
Experiment [5] deals with KM12.
Experiment [6] has as its system NCI-H460.
In experiment [7] the test system is IGROV-1.
In experiment [8] the test system is SF-268.
Experiment [9] concerns A549.
The test system of experiment [10] is HOP-62.
Experiment [11] has as its system UACC-257.
In experiment [12] the test system is SK-MEL-28.
The test system of experiment [13] is HOP-92.
Experiment [14] relates to OVCAR-8.
The test system of experiment [15] is T47D.
Experiment [16] deals with M14.
The subject of experiment [17] is SK-MEL-5.
Experiment [18] relates to OVCAR-5.
The test system of experiment [19] is UACC-62.
The test system of experiment [20] is MDA-N.

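In this assay, cells in 96-well plates receive the compound at five concentrations for 48 hours. Endpoints are linearly interpolated between the surrounding concentrations. GI50 = concentration required for 50% inhibition of growth.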 Activity calls are given as the source filed them. Cut-off read from the data, not from the text of the source: active = GI50 up to about 1.1 µM and inactive = higher.

Take `CCCCn1cnc2c(SC)ncnc21`: the GI50 in experiment [1], in [2], in experiment [3], in experiment [4], in [5] and in experiment [6] was > 100 µM (inactive) each time. Further, the GI50 in experiment [7], in [8], in [9], in experiment [10], in experiment [11] and in experiment [12] was > 100 µM (inactive) each time. For the same molecule, the GI50 in experiment [13], in experiment [14], in experiment [15], in experiment [16], in [17] and in [18] was > 100 µM (inactive) in each case. Further, the GI50 in [19] and in experiment [20] was > 100 µM (inactive) in each case.
On to `O=C1/C(=C/c2ccc(O)cc2)CCc2ccccc21`, for which the GI50 in experiment [1] was 23.3 µM (inactive); in experiment [2], 22 µM (inactive); in [3] it was 20 µM (inactive); in [4] it was 20.7 µM (inactive); in experiment [5], 17.2 µM (inactive); in experiment [6], 29.3 µM (inactive). In addition, the GI50 was 26.9 µM (inactive) in experiment [7]; 16.1 µM (inactive) in experiment [8]; 23.6 µM (inactive) in experiment [9]; 22.9 µM (inactive) in experiment [10]; 17.3 µM (inactive) in experiment [11]; 19.2 µM (inactive) in [12]. The GI50 was 36.2 µM (inactive) in experiment [13]; 27.2 µM (inactive) in [14]; 50.6 µM (inactive) in [15]; 20.2 µM (inactive) in experiment [16]; 16.9 µM (inactive) in experiment [17]; 35.7 µM (inactive) in [18]. Moreover, the GI50 in experiment [19] is 21.5 µM (inactive); in experiment [20] it was 22.1 µM (inactive).
Consider `CC(C)(C)OC(=O)C1=C(N)N(Cc2ccccc2)C2(C)C=CC(=O)C=C12` (stereo not given), for which the GI50 in experiment [1] is 3.1 µM (inactive); in experiment [2], 14.2 µM (inactive); in experiment [3], 1.95 µM (inactive); in [4], 4.92 µM (inactive); in [5], 6.49 µM (inactive); in experiment [6], 15.5 µM (inactive). Besides, the GI50 was 5.31 µM (inactive) in experiment [7]; 2.18 µM (inactive) in experiment [8]; 12.4 µM (inactive) in experiment [9]; 16 µM (inactive) in [10]; 5.24 µM (inactive) in experiment [11]; 7.41 µM (inactive) in experiment [12]. The GI50 is 2.16 µM (inactive) in experiment [13]; 2.45 µM (inactive) in experiment [14]; 3.1 µM (inactive) in [15]; 2.98 µM (inactive) in experiment [16]; 4.31 µM (inactive) in experiment [17]; 18.1 µM (inactive) in [18]. Further, the GI50 is 7.93 µM (inactive) in [19] and 4.79 µM (inactive) in [20].
On to `N=c1oc2ccccc2cc1C(=O)Nc1cccc2ccccc12`, for which the GI50 was > 100 µM (inactive) in experiment [1]; > 100 µM (inactive) in experiment [2]; > 100 µM (inactive) in experiment [3]; 56.6 µM (inactive) in [4]; > 100 µM (inactive) in experiment [5]; > 100 µM (inactive) in experiment [6]. For the same molecule, the GI50 is > 100 µM (inactive) in [7]; > 100 µM (inactive) in experiment [8]; > 100 µM (inactive) in [9]; 50 µM (inactive) in experiment [10]; > 100 µM (inactive) in [11]; > 100 µM (inactive) in experiment [12]. The GI50 in [13], in [14], in [15], in [16], in experiment [17] and in experiment [18] was > 100 µM (inactive) throughout. In addition, the GI50 in experiment [19] and in [20] was > 100 µM (inactive) each time.
In the case of `CCOC(=O)C(NC(=O)CC)(N1CCN(c2cc3c(cc2F)c(=O)c(C(=O)O)cn3C2CC2)CC1)C(F)(F)F` (stereo not given), the GI50 in [1], in experiment [2], in experiment [3], in experiment [4], in experiment [5] and in experiment [6] was > 100 µM (inactive) each time. Also, the GI50 in experiment [7], in [8], in [9], in experiment [10], in [11] and in experiment [12] was > 100 µM (inactive) throughout. Besides, the GI50 in experiment [13] was 70.8 µM (inactive); in experiment [14], > 100 µM (inactive); in experiment [15] it was > 100 µM (inactive); in [16], > 100 µM (inactive); in experiment [17] it was > 100 µM (inactive); in experiment [18], > 100 µM (inactive). Also, the GI50 in experiment [19] and in experiment [20] was > 100 µM (inactive) each time.
`O=C1/C(=C2\Sc3c(ccc(Cl)c3Cl)C2=O)Sc2c1ccc(Cl)c2Cl`: the GI50 in experiment [1] was 12.5 µM (inactive); in experiment [2], > 100 µM (inactive); in [3] it was > 100 µM (inactive); in experiment [4], > 100 µM (inactive); in [5], > 100 µM (inactive); in experiment [6], > 100 µM (inactive). For the same molecule, the GI50 in experiment [7] is > 100 µM (inactive); in experiment [8], > 100 µM (inactive); in [9], > 100 µM (inactive); in experiment [10], 12.6 µM (inactive); in [11], > 100 µM (inactive); in experiment [12], > 100 µM (inactive). Besides, the GI50 in experiment [13], in [14], in [15], in experiment [16], in experiment [17] and in experiment [18] was > 100 µM (inactive) in each case. Further, the GI50 in [19] and in experiment [20] was > 100 µM (inactive) throughout.
For the molecule `C/C(=C\c1ccccc1)C(=O)NCc1ccc(C(=O)NCCc2c[nH]c3ccccc23)cc1`, the GI50 in experiment [1] is 42 µM (inactive); in experiment [2], 16 µM (inactive); in experiment [3] it was > 100 µM (inactive); in [4] it was > 100 µM (inactive); in [5], 33.2 µM (inactive); in experiment [6], 25.9 µM (inactive). Besides, the GI50 in experiment [7] is > 100 µM (inactive); in experiment [8] it was > 100 µM (inactive); in experiment [9], > 100 µM (inactive); in experiment [10] it was 82 µM (inactive); in experiment [11], 13.6 µM (inactive); in [12], > 100 µM (inactive). For the same molecule, the GI50 in experiment [13] is > 100 µM (inactive); in [14] it was > 100 µM (inactive); in experiment [15] it was > 100 µM (inactive); in [16], > 100 µM (inactive); in experiment [17], 50.5 µM (inactive); in [18], > 100 µM (inactive). In addition, the GI50 was 14 µM (inactive) in [19] and > 100 µM (inactive) in experiment [20].
For the molecule `COc1cc(C=C2C(C)=NN(c3cccc(Cl)c3)C23SCC(=O)N3c2nc3ccccc3s2)ccc1O` (stereo not given), the GI50 in experiment [1] was 27 µM (inactive); in experiment [2], 24.3 µM (inactive); in [3], 25.9 µM (inactive); in [4], 16.5 µM (inactive); in experiment [5], 30.8 µM (inactive); in experiment [6], 35.6 µM (inactive). Also, the GI50 was 29.4 µM (inactive) in experiment [7]; 23.2 µM (inactive) in experiment [8]; 29.6 µM (inactive) in experiment [9]; 26 µM (inactive) in experiment [10]; 32.7 µM (inactive) in experiment [11]; 33 µM (inactive) in [12]. For the same molecule, the GI50 in experiment [13] is 18 µM (inactive); in experiment [14], 20.1 µM (inactive); in experiment [15], 33.3 µM (inactive); in [16], 40.3 µM (inactive); in [17] it was 18.2 µM (inactive); in experiment [18] it was 46.3 µM (inactive). Also, the GI50 in [19] was 26.7 µM (inactive); in experiment [20] it was 31.5 µM (inactive).
Take `CC(C)OC(=O)c1ccc(CCC2=CC(=O)C(Br)=CC2=O)cc1`: the GI50 in [1] was 14.8 µM (inactive); in experiment [2], 16.9 µM (inactive); in experiment [3] it was 5.27 µM (inactive); in [4], 15.7 µM (inactive); in experiment [5], 13 µM (inactive); in experiment [6] it was 20.7 µM (inactive). Besides, the GI50 in [7] is 14.4 µM (inactive); in experiment [8], 16 µM (inactive); in experiment [9], 34.7 µM (inactive); in [10] it was 29.6 µM (inactive); in [11] it was 13.2 µM (inactive); in experiment [12], 18.2 µM (inactive). Moreover, the GI50 in experiment [13] was 12.4 µM (inactive); in experiment [14], 15.3 µM (inactive); in experiment [15] it was 19.6 µM (inactive); in [16], 16.4 µM (inactive); in experiment [17], 12.8 µM (inactive); in [18], 22.1 µM (inactive). Moreover, the GI50 in experiment [19] was 17.5 µM (inactive); in experiment [20], 16.4 µM (inactive).
On to `Cc1cnc2[nH]c(-c3cccc(F)c3)cc(=O)c2c1`, for which the GI50 in experiment [1] is 0.0139 µM (active); in experiment [2], 0.111 µM (active); in [3] it was 0.0757 µM (active); in experiment [4], 0.0232 µM (active); in experiment [5], 0.0327 µM (active); in experiment [6], 0.0411 µM (active). For the same molecule, the GI50 is 0.161 µM (active) in experiment [7]; 0.0705 µM (active) in experiment [8]; 0.0515 µM (active) in experiment [9]; 0.0662 µM (active) in experiment [10]; > 100 µM (inactive) in experiment [11]; 0.0352 µM (active) in [12]. Moreover, the GI50 was 1.4 µM (inactive) in experiment [13]; 0.0582 µM (active) in experiment [14]; 15.6 µM (inactive) in experiment [15]; 0.0342 µM (active) in experiment [16]; 0.0329 µM (active) in experiment [17]; 0.0738 µM (active) in experiment [18]. The GI50 in [19] is 0.0392 µM (active); in experiment [20], 0.0112 µM (active).

For the origin of these results see ChEMBL document CHEMBL1201862, “PubChem BioAssay data set” (2004).
